From ChEMBL document CHEMBL1201862, “PubChem BioAssay data set” (2004)
The source made the active and inactive calls.

Tests used:
[1] = molecular target: Luciferin 4-monooxygenase (Photinus pyralis, UniProt P08659); experiment: Counter Screen for Luciferase-based Assay Positives. [Related pubchem assays: 620, 618, 411 ]
[2] = system: HT-1080; experiment: cytotoxicity in HT1080 fibrosarcoma cells, cell-based, fluorescence readout (AID 620); type: functional; conditions: Homo sapiens
[3] = inhibitors of firefly luciferase expression or activity, dose response, H4 neuroglioma cells, luminescence (AID 1990); type: functional, cell-based
[4] = inhibitors of SNCA 5'UTR-driven reporter translation, confirmation, H4 neuroglioma cells, luminescence (AID 1988); type: functional, cell-based
[5] = Luminescence Cell-Based Dose Response HTS to Identify Inhibitors of 5'UTR Stem-Loop Driven Prion Protein mRNA Translation in H4 Neuroglioblastoma Cells. [Related pubchem assays: 1827 (Project Summary), 1813 (Primary HTS)]; type: functional
[6] = molecular target: T1, Microphthalmia-associated transcription factor (Homo sapiens, UniProt O75030); experiment: TRPM1 promoter luciferase signal decrease, dose response, MITF inhibitor project, cell-based, SK-MEL-5, cherry-picked, set 3 (AID 493073); type: functional
T1 sequence (O75030 whole entry): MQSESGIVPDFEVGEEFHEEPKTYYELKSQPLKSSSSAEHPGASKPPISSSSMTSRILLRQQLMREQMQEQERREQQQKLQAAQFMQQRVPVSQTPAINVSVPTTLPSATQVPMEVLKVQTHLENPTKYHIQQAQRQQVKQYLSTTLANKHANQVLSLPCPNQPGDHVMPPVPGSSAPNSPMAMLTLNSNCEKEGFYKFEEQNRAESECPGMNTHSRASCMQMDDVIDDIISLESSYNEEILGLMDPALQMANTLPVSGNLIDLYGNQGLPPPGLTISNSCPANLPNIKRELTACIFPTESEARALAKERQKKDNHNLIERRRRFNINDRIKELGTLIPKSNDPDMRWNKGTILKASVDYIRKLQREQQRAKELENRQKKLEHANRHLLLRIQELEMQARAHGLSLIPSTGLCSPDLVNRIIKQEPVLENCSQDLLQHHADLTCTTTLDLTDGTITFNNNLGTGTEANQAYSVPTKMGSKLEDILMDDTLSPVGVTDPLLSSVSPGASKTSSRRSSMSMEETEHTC

[7] = molecular target: Aspartyl aminopeptidase (Plasmodium falciparum 3D7, UniProt Q8I2J3)
[8] = molecular target: Procathepsin L (Homo sapiens, UniProt P07711)
[9] = system: Vero; experiment: Vero E6 cell cytotoxicity, SAR follow-up, cytotoxicity control for West Nile virus antiviral project, synthesized analogs (AID 2244); type: functional; conditions: Chlorocebus sabaeus
[10] = system: Vero; experiment: cytotoxicity of synthesized analogs in Vero cells, SAR follow-up, cytotoxicity control for West Nile virus antiviral project, cell-based, set II (AID 2402); type: functional; conditions: Chlorocebus sabaeus
[11] = molecular target: Cytochrome P450 2C9 (Homo sapiens, UniProt P11712)
[12] = molecular target: Lysosomal acid glucosylceramidase (Homo sapiens, UniProt P04062); experiment: Dose response cell-based high throughput screening assay to identify enhancers of beta-glucosidase activity. [Related pubchem assays: 784 ]; type: functional
[13] = molecular target: Cytochrome P450 2C19 (Homo sapiens, UniProt P33261); experiment: Cytochrome panel assay with activity outcomes. Panel member name: p450-cyp2c19 Compounds with AC50 equal or less than 10 uM are considered active; type: functional; conditions: read-out: AC50
[14] = A Cell Based Secondary Assay To Explore Cytotoxicity of Compounds that Sensitize Mycobacterium Tuberculosis to Beta-Lactam Antibiotics.; type: functional
[15] = cytotoxicity toward NIH3T3 fibroblasts, dose response, counter-screen, cell-based, ATP luminescence, mouse fibroblasts (AID 2010); type: functional;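 also: cells exposed to compound for about 90 hours before reading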
[16] = inhibitors of intracellular T. cruzi replication, confirmation, NIH3T3 host cells, beta-gal luminescence (AID 2044); type: functional, cell-based;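 also: intracellular parasites grown in NIH/3T3 mouse fibroblasts as host cells; luminescent beta-galactosidase reporter signal from transgenic T. cruzi replicating inside host cells; inhibitors lower the luminescence signal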
[17] = molecular target: T2, Orexin receptor type 2 (Homo sapiens, UniProt O43614); experiment: Counterscreen assay for antagonists of the orexin 1 receptor (OX1R; HCRTR1): Homogeneous Time Resolved Fluorescence (HTRF)-based cell-based dose response assay for antagonists of the orexin 2 receptor (OX2R; HCRTR2), run by assay provider.; type: functional
T2 sequence (O43614 whole entry): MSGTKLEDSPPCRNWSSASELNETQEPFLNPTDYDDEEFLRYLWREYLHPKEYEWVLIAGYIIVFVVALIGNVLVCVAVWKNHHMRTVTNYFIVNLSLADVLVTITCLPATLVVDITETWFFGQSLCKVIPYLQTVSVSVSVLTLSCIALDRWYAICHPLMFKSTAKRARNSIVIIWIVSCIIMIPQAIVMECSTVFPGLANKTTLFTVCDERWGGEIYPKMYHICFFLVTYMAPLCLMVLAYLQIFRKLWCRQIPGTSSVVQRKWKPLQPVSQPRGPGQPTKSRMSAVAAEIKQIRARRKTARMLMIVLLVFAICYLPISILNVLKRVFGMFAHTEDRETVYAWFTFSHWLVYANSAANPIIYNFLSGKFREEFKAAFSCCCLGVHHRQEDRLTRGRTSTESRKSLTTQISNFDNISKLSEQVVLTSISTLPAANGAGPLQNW

[18] = Counterscreen for antagonists of the orexin 1 receptor (OX1R; HCRTR1): Fluorescence-based cell-based high throughput dose response assay to identify antagonists of the parental CHO cell line. [Related pubchem assays (depositor defined):AID434989, AID435008, AID463079, AID485270, AID492963, AID492964, AID492965, AID493232, AID504699, AID504701]; type: functional
[19] = molecular target: T3, Orexin/Hypocretin receptor type 1 (Homo sapiens, UniProt O43613); experiment: Homogeneous Time Resolved Fluorescence (HTRF)-based cell-based high throughput dose response assay for antagonists of the orexin 1 receptor (OX1R; HCRTR1). [Related pubchem assays (depositor defined):AID434989, AID435008, AID463079, AID485270, AID492963, AID492964, AID492965, AID493232, AID504717, AID504718]; type: functional
T3 sequence (O43613 whole entry): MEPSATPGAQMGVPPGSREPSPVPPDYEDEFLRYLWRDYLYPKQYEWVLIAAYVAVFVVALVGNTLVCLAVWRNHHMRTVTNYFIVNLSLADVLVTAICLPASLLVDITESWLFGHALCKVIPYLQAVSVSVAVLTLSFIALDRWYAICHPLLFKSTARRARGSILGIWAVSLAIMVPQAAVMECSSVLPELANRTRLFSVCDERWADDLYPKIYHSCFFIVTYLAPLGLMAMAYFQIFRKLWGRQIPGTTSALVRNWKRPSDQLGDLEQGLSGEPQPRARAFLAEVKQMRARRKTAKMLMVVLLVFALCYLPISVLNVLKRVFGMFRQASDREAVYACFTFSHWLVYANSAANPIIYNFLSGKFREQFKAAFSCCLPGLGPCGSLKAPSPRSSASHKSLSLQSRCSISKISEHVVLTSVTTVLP

[20] = molecular target: T2, Orexin receptor type 2; experiment: Counterscreen assay for antagonists of the orexin 1 receptor (OX1R; HCRTR1): Fluorescence-based cell-based dose response assay for antagonists of the orexin 2 receptor (OX2R; HCRTR2), run by assay provider.; type: functional
[21] = molecular target: T3, Orexin/Hypocretin receptor type 1; experiment: Fluorescence-based cell-based high throughput dose response assay for antagonists of the orexin 1 receptor (OX1R; HCRTR1). [Related pubchem assays (depositor defined):AID434989, AID435008, AID463079, AID485270, AID492963, AID492964, AID492965, AID493232, AID504717, AID504718]; type: functional
[22] = system: CHO-K1; experiment: Counterscreen for antagonists of the orexin 1 receptor (OX1R; HCRTR1): Homogeneous time resolved fluorescence (HTRF)-based cell-based dose response assay to identify antagonists of the parental CHO-K1 cell line. [Related pubchem assays (depositor defined):AID434989, AID435008, AID463079, AID485270, AID492963, AID492964, AID492965, AID493232, AID504699, AID504701]; type: functional; conditions: Cricetulus griseus;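 also: potency for inhibition of ATP-stimulated IP1 production as antagonists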
[23] = molecular target: T4, Alkaline phosphatase, tissue-nonspecific isozyme (Homo sapiens, UniProt P05186)
T4 sequence (P05186 whole entry): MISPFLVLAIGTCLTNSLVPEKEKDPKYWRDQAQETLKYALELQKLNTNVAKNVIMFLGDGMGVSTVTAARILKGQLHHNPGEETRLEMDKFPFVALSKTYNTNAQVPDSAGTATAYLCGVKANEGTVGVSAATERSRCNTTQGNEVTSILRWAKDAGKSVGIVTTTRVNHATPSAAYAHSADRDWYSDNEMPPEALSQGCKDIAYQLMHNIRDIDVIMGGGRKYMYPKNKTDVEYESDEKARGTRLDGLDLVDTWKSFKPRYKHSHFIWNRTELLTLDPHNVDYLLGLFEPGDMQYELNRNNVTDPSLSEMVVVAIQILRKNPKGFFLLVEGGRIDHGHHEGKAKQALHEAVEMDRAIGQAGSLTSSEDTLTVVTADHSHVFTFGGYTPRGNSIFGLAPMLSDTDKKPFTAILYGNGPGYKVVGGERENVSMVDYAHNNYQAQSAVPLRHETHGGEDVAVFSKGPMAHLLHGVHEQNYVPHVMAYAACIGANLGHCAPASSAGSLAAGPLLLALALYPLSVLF

[24] = molecular target: Cytochrome P450 2D6 (Homo sapiens, UniProt P10635);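 also: CYP2D6 member of a cytochrome P450 panel assay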
[25] = molecular target: T5, Cytochrome P450 1A2 (Homo sapiens, UniProt P05177);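 also: PubChem cytochrome P450 panel assay, CYP1A2 panel member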
T5 sequence (P05177 whole entry): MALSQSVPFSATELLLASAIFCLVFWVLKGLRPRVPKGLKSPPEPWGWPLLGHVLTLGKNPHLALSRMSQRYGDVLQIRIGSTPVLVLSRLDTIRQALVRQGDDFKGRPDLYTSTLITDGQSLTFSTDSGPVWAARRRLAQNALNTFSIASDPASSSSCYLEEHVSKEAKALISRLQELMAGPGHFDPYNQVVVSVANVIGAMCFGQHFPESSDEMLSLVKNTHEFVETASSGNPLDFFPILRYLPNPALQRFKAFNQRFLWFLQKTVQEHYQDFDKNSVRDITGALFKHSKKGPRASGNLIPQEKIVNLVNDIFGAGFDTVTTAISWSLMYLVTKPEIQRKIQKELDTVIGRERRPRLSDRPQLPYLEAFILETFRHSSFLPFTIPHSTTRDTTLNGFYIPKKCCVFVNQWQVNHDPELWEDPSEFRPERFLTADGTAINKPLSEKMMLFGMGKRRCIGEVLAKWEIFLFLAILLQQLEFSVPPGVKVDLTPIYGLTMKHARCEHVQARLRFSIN

[26] = molecular target: Peroxisome proliferator-activated receptor gamma/Nuclear receptor coactivator 1 (Homo sapiens, UniProt P37231); type: functional;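 also: agonist potency as compounds enhance coactivator SRC-1 recruitment to PPARgamma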
[27] = molecular target: Peroxisome proliferator-activated receptor gamma/Nuclear receptor coactivator 2 (Homo sapiens, UniProt P37231); type: functional;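 also: agonist potency for raising coactivator recruitment to the receptor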
[28] = molecular target: Peroxisome proliferator-activated receptor gamma/Nuclear receptor coactivator 3 (Homo sapiens, UniProt P37231); type: functional;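 also: agonist potency for raising coactivator recruitment to the receptor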

Sequence of Procathepsin L (P07711 whole entry): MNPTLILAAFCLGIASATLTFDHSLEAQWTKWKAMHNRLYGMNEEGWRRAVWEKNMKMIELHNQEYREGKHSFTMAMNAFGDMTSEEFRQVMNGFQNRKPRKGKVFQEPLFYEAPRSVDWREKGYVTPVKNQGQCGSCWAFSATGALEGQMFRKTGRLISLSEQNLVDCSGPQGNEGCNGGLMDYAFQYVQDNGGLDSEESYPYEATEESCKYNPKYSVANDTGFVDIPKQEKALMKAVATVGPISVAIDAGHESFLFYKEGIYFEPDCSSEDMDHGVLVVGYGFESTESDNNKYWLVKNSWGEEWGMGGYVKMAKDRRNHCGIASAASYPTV
Sequence of Cytochrome P450 2C19 (P33261 whole entry): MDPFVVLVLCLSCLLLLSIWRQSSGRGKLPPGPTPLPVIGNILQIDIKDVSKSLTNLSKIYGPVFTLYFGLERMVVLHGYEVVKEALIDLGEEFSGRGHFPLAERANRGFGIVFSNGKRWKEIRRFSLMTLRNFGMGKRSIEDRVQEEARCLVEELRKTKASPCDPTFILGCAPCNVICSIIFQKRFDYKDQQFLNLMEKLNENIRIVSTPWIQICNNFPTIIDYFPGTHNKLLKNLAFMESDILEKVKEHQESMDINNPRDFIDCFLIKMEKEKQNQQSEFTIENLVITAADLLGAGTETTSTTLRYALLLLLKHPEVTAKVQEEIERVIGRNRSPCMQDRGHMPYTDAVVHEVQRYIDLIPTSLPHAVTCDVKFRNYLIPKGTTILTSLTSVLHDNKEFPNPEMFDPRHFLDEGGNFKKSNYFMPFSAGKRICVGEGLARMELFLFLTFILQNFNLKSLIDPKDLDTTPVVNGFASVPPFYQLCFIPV
Sequence of Lysosomal acid glucosylceramidase (P04062 whole entry): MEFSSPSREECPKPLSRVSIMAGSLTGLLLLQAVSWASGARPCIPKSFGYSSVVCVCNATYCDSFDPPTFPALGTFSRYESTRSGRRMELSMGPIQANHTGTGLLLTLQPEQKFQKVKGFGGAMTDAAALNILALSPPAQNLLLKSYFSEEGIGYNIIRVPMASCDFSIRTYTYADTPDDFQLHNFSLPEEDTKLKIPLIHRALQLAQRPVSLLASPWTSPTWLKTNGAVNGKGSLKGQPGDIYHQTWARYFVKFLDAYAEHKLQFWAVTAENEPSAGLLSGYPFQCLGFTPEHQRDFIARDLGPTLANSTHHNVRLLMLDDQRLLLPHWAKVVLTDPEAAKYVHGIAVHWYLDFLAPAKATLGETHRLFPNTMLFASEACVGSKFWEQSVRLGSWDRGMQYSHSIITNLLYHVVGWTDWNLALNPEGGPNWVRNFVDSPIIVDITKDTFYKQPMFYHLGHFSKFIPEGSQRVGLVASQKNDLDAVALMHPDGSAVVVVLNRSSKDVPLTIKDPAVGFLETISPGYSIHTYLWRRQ
Sequence of Cytochrome P450 2C9 (P11712 whole entry): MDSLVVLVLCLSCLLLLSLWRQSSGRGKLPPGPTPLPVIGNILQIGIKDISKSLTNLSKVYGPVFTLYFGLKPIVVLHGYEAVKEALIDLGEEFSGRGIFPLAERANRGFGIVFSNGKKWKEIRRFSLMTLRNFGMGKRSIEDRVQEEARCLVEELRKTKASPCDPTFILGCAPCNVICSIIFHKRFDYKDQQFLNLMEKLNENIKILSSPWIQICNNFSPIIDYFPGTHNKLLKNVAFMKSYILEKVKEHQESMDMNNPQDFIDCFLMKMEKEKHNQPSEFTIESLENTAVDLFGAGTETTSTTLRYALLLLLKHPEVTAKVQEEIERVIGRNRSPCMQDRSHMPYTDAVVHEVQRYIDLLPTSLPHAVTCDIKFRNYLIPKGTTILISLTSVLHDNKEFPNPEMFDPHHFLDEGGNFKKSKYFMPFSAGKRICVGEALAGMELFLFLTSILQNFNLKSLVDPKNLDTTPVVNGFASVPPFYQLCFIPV
Sequence of Aspartyl aminopeptidase (Q8I2J3 whole entry): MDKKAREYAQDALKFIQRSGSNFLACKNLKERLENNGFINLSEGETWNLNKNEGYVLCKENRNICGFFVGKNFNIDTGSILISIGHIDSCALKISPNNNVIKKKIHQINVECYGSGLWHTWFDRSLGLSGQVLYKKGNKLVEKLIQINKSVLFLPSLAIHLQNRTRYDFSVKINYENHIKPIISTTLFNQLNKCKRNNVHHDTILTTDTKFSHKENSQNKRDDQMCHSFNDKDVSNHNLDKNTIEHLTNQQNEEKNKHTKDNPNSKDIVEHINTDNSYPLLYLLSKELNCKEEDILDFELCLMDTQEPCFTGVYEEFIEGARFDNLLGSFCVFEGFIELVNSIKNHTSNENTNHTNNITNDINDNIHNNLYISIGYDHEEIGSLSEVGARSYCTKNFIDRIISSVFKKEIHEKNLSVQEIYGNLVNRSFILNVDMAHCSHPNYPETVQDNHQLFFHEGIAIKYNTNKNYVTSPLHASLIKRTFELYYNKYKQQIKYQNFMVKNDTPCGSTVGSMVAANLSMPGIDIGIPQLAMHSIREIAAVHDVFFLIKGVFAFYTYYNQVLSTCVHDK
Sequence of Cytochrome P450 2D6 (P10635 whole entry): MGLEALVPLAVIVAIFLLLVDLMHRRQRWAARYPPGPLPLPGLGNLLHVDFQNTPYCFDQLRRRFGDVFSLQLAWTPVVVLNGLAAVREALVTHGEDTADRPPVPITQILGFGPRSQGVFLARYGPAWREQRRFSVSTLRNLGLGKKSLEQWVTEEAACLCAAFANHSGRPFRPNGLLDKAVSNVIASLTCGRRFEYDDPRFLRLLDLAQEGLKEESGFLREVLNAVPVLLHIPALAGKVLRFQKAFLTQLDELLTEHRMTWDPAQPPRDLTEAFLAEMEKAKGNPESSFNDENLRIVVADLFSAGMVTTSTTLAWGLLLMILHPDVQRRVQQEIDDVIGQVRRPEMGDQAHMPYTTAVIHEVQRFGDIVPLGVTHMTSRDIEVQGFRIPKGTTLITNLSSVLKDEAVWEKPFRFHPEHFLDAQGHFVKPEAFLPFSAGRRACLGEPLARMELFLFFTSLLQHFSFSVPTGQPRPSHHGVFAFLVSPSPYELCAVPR
Sequence of Luciferin 4-monooxygenase (P08659 whole entry): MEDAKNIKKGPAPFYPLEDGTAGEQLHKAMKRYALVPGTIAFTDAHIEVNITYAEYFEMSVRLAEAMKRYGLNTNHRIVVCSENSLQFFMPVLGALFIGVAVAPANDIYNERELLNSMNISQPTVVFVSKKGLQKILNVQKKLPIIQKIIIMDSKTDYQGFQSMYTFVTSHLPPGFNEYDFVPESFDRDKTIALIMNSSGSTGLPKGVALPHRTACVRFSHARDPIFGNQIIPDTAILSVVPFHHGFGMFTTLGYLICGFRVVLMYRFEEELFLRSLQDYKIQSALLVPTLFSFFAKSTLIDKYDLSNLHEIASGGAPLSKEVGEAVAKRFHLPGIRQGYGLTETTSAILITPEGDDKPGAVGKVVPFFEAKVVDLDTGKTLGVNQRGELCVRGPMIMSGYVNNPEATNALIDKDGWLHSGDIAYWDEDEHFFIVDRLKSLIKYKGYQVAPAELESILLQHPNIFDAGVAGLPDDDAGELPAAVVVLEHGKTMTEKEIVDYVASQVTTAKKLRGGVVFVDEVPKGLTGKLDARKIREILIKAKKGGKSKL

O=C1c2ccccc2S(=O)(=O)N1Cc1nc2ccccc2s1
EC50 [1]: 7.63 µM (active)
EC50 [2]: > 50 µM (not active)
EC50 [3]: 7.48 µM (active)
EC50 [4]: 4.21 µM (active)
EC50 [5]: 7.02 µM (active)
AC50 [6]: 2.7 µM (active)

Cc1c(Cl)cccc1NC(=O)Nn1cnnc1
IC50 [7]: 1.87 µM (active)
IC50 [8]: > 59.6 µM (not active)

COc1ccc(-c2csc(N(Cc3ccccc3)C(=O)c3ccccc3Cl)n2)cc1
CC50 [9]: > 40 µM (active)
CC50 [10]: > 100 µM (active)

COc1ccc2c(c1)-c1ccccc1S(=O)(=O)N2C(C)=O
AC50 [11]: 12.6 µM (inconclusive)
EC50 [12]: > 50 µM (not active)
AC50 [13]: 25.1 µM (inconclusive)

CC(C)CCSc1nc(N2CCOCC2)c2c(c1C#N)CC(C)(C)OC2
EC50 [3]: 16.4 µM (active)
EC50 [4]: 31.3 µM (active)
CC50 [14]: > 40 µM (active)
EC50 [5]: > 120 µM (not active)
EC50 [15]: > 60 µM (not active)
EC50 [16]: 1.3 µM (active)

CCn1c2ccccc2c2cc(NC(=O)c3cccc(OC)c3OC)ccc21
IC50 [17]: > 50 µM (inactive)
IC50 [18]: > 49.8 µM (inactive)
CC50 [14]: > 40 µM (active)
IC50 [19]: 1.7 µM (active)
IC50 [20]: > 88.8 µM (inactive)
IC50 [21]: 3.08 µM (active)
IC50 [22]: > 66.2 µM (inactive)

COc1ccc2nc(C)cc(SCC(=O)NNC(=O)COc3ccccc3)c2c1
EC50 [23]: 79.5 µM (not active)
AC50 [24]: 10 µM (inconclusive)
AC50 [11]: 10 µM (inconclusive)
AC50 [13]: 3.55 µM (inconclusive)
AC50 [25]: 10 µM (inconclusive)

COc1ccc2nc(C)cc(SCC(=O)Nc3c(C)cccc3C)c2c1
EC50 [23]: > 100 µM (not active)
EC50 [26]: > 79.4 µM (not active)
EC50 [27]: > 79.4 µM (not active)
EC50 [28]: > 79.4 µM (not active)

COc1cccc(C(=O)NC(=S)Nn2cnnc2)c1OC
IC50 [7]: 2.08 µM (active)
IC50 [8]: > 59.6 µM (not active)

COC(=O)CN1C(=O)C2(OCCCO2)c2cc(Br)ccc21
EC50 [12]: > 10 µM (not active)
